Measurements published in PMC10328974, “Molecular mechanism of plasmid-borne resistance to sulfonamide antibiotics” (Nature Communications, 2023).
Converted amounts (≈) assume the structure as drawn.

Assays:
[1] = system: T1, WT E. coli BW25113; assay: microbe, parasite or virus in culture; set-up: agar dilution MIC on MHII agar, lowest concentration inhibiting bacterial growth; conditions: Escherichia coli, BW25113, 18 h, read-out: MIC (ug/mL)
T1 construct: BW25113
Method: The susceptibilities of various E. coli strains to sulfonamide antibiotics were assessed using the agar dilution method[85] with the exception that MHII agar (Sigma) plates were used, as this agar is specifically formulated to have low levels of thymine and thymidine content, both of which are known to antagonize the action of sulfonamides. Antibiotics used were: sulfamethoxazole (SMX) (Sigma-Aldrich), 50 mg/mL in DMSO; sulfadiazine (SDZ) (Sigma-Aldrich), 100 mg/mL in 1 M NaOH; sulfanilamide (SAA) (Sigma-Aldrich), 50 mg/mL in acetone; sulfisoxazole (SOZ) (TCI America) 50 mg/mL on acetone; sulfathiazole (STZ) (Sigma-Aldrich) 50 mg/mL in acetone: sulfapyridine (SPY) (Sigma-Aldrich) 40 mg/mL in 0.5 M NaOH; sulfamerazine (SMRZ) (AK Scientific), 50 mg/mL in DMSO; sulfamethazine (SMZ) (Alfa Aesar), 50 mg/mL in DMSO; sulfameter (SMT) (Sigma-Aldrich) 100 mg/mL in DMSO; sulfacetamide (SAD) (Sigma-Aldrich) 100 mg/mL in DMSO; sulfaquinoxaline (SQX) (Sigma-Aldrich), 50 mg/mL in DMSO; sulfadimethoxine (SDT) (Sigma-Aldrich), 100 mg/m: in 1 N NaOH. Freshly streaked E. coli colonies were resuspended in sterile 0.9% NaCl solution and the turbidity of the suspension adjusted to that of a McFarland Standard of 0.5 using a Sensititre Nephelometer (Thermo Fisher Scientific) calibrated to a McFarland 0.5 BaSO4 standard. The bacterial suspension was diluted 1:10 into a well of a sterile 96-well microtitre plate by pipetting 10 μL into a well containing 90 μL of sterile saline. A 48-pin replicator with 1.5 mm pins was used to deliver the final inoculum of 1 μL (~10^4 […]) onto MHII agar plates containing various concentrations of either SMX, SDZ, SAA, SOZ STZ, SPY, SMRZ, SMZ, SMT, SAD, SQX, or SDT. […] Inoculated sulfa-agar plates were incubated 37 °C for 18 h and the minimum inhibitory concentration (MIC) was determined to be the lowest concentration of drug that inhibited bacterial growth. In all instances, a drug-free control plate was included to ensure bacterial growth. The ∆folP deletion strain, which is auxotrophic for thymidine

[2] = biological target: T2, Sul3 (Escherichia coli, UniProt C0HMD9, F177G); assay: coupled malachite green DHPS activity assay, competition with pABA; format: biochemical; conditions: read-out: Sulfa (SMX) / Ki
T2 sequence (C0HMD9 1-242 F177G): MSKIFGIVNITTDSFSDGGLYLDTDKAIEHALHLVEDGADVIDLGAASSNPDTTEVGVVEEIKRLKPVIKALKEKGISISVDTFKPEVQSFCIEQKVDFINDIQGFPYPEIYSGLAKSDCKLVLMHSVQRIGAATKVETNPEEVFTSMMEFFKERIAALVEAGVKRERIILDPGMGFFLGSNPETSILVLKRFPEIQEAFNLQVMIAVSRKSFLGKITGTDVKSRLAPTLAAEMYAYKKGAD

[3] = biological target: T3, EcDHPS (dihydropteroate synthase) (Escherichia coli, UniProt P0AC13); assay: biochemical
T3 construct: gene folP

[4] = biological target: T4, EcDHPS (Escherichia coli, UniProt P0AC13, F190W/W92F); assay: intrinsic tryptophan fluorescence titration; format: binding
T4 construct: gene folP; 1-282 amino acids
T4 sequence (P0AC13 1-282 W92F/F190W): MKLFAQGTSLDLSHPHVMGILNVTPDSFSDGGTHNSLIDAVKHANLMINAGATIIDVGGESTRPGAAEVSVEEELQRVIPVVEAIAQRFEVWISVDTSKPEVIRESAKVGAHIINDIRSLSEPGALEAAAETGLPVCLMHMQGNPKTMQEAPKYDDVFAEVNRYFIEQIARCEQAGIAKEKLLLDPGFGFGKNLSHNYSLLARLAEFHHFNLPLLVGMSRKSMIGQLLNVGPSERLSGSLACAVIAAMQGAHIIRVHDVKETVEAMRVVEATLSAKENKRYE

Structure (SMILES)	MIC [1]	also measured
CC(=O)NS(=O)(=O)c1ccc(N)cc1 [SAD, sulfacetamide]	512 µg/mL (≈ 2390 µM)	
Cc1ccnc(NS(=O)(=O)c2ccc(N)cc2)n1 [SMRZ, sulfamerazine]	32 µg/mL (≈ 121 µM)	
Nc1ccc(S(=O)(=O)Nc2ncccn2)cc1 [SDZ, sulfadiazine]	32 µg/mL (≈ 128 µM)	
COc1cc(NS(=O)(=O)c2ccc(N)cc2)nc(OC)n1 [SDT, sulfadimethoxine]	256 µg/mL (≈ 825 µM)	
COc1cnc(NS(=O)(=O)c2ccc(N)cc2)nc1 [SMT, sulfameter]	128 µg/mL (≈ 457 µM)	
Cc1cc(NS(=O)(=O)c2ccc(N)cc2)no1 [SMX, sulfamethoxazole]	16 µg/mL (≈ 63.2 µM)	Ki [2]: 4.16 ± 0.3 µM; Ki [3]: 5.15 ± 1.1 µM
Nc1nc(O)c2c(n1)NCC(COP(=O)(O)OP(=O)(O)O)=N2 [DHPP, 6-hydroxymethyl-7,8-dihydropterin pyrophosphate]		Kd [4]: 8 µM
Nc1ccc(S(N)(=O)=O)cc1 [SAA, sulfanilamide]	2050 µg/mL (≈ 11900 µM)	

Second part, led by results:

MIC [1]	Structure (SMILES)	also measured
32 µg/mL (≈ 120 µM)	Cc1noc(NS(=O)(=O)c2ccc(N)cc2)c1C [SOZ, sulfisoxazole]	
256 µg/mL (≈ 920 µM)	Cc1cc(C)nc(NS(=O)(=O)c2ccc(N)cc2)n1 [SMZ, sulfamethazine]	
512 µg/mL (≈ 1700 µM)	Nc1ccc(S(=O)(=O)Nc2cnc3ccccc3n2)cc1 [SQX, sulfaquinoxaline]	
64 µg/mL (≈ 257 µM)	Nc1ccc(S(=O)(=O)Nc2ccccn2)cc1 [SPY, sulfapyridine]	
16 µg/mL (≈ 62.7 µM)	Nc1ccc(S(=O)(=O)Nc2nccs2)cc1 [STZ, sulfathiazole]	
